Test results taken from US6762170B1, “2-(purin-9-yl)-tetrahydrofuran-3,4-diol derivatives” (SmithKlineBeecham Corporation, priority 1998, dated 2004).
Counter-ions that a name gives are not always drawn.

Columns and labels:
Format in all cases: cell-based
Adenosine 2a receptor = target: T1, Adenosine 2a receptor (Homo sapiens, UniProt P29274); assay: Agonist activity against adenosine 2a receptor subtype (CHO cells, cAMP response element/SPAP reporter); settings: EC50 ratio to NECA; transfected CHO cells, basal cAMP reflected by SPAP
T1 construct: expressed in transfected cells; host or cells: Chinese hamster ovary (CHO) cells, co-transfected with a CRE-SPAP reporter
T1 sequence (P29274 whole entry): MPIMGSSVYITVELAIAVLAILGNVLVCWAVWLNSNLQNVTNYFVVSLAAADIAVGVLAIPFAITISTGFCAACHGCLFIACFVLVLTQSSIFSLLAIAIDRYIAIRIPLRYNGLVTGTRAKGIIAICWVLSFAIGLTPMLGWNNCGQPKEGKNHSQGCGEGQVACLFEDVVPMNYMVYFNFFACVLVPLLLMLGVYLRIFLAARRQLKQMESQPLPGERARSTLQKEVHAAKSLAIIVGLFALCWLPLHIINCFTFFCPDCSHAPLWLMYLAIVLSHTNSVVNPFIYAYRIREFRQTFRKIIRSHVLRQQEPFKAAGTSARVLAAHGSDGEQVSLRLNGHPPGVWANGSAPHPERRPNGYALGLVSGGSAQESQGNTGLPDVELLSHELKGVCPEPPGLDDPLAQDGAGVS
Description: (§1) (1) Agonist Activity Against Adenosine 2a, Adenosine 1 and Adenosine 3 Receptor Subtypes.
(§2) Agonist selectivity of compounds against other human adenosine receptors is determined using Chinese hamster ovary (CHO) cells transfected with the gene for the relevant human adenosine receptor following a method based on that of Castanon and Spevak, 1994. The CHO cells are also transfected with cyclic AMP response elements promoting the gene for secreted placental alkaline phosphatase (SPAP) (Wood, 1995). The effect of test compounds may be determined by their effects on basal levels of cAMP (A2a) or on forskolin-enhanced cAMP (A1 and A3) as reflected by changes in levels of SPAP. EC50 values for compounds may then be determined as a ratio to that of the non-selective agonist N-ethyl carboxamide adenosine (NECA).
(§3) Values given in the Table are EC50 values as a ratio of that of NECA.

Adenosine 3 receptor = target: T2, Adenosine 3 receptor (Homo sapiens, UniProt P0DMS8); assay: Agonist activity against adenosine 3 receptor subtype (CHO cells, forskolin-enhanced cAMP, SPAP reporter); settings: EC50 ratio to NECA; transfected CHO cells, forskolin-enhanced cAMP reflected by SPAP
T2 construct: expressed in transfected cells; host or cells: Chinese hamster ovary (CHO) cells, co-transfected with a CRE-SPAP reporter
T2 sequence (P0DMS8 1-318): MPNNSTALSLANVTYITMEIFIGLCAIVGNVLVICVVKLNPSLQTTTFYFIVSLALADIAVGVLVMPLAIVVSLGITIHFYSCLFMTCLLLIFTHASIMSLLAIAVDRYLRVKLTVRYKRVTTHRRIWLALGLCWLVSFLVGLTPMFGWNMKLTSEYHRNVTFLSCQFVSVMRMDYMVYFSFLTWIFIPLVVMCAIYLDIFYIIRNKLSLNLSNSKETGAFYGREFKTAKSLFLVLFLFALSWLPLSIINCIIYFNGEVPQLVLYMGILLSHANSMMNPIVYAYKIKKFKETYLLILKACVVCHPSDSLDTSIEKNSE
Description: as §1, §2, §3

Adenosine 1 receptor = target: T3, Adenosine 1 receptor (Homo sapiens, UniProt P30542); assay: Agonist activity against adenosine 1 receptor subtype (CHO cells, forskolin-enhanced cAMP, SPAP reporter); settings: EC50 ratio to NECA; transfected CHO cells, forskolin-enhanced cAMP reflected by SPAP
T3 construct: expressed in transfected cells; host or cells: Chinese hamster ovary (CHO) cells, co-transfected with a CRE-SPAP reporter
T3 sequence (P30542 1-326): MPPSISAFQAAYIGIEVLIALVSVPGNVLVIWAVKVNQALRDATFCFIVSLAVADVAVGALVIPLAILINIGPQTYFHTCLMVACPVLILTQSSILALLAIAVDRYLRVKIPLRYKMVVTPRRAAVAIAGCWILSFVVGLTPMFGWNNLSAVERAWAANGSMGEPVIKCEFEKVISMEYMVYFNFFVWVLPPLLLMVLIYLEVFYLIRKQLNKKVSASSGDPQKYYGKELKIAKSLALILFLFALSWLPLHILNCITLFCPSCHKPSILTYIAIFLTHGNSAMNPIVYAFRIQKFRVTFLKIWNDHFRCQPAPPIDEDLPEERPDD
Description: as §1, §2, §3

SMILES	A2a (EC50 values as a ratio of that of NECA) (Adenosine 2a receptor)	A3 (EC50 values as a ratio of that of NECA) (Adenosine 3 receptor)	A1 (EC50 values as a ratio of that of NECA) (Adenosine 1 receptor)
CCc1cc(C2OC(n3cnc4c(NC(CO)C(C)C)nc(NCCNc5ccccn5)nc43)C(O)C2O)on1 [Example 71, (2S,3S,4R,5R)-2-(3-Ethyl-isoxazol-5-yl)-5-{6-(1S-hydroxymethyl-2-methyl-propylamino)-2-[2-(pyridin-2-ylamino)-ethylamino]-purin-9-yl}-tetrahydro-furan-3,4-diol diformate]	12.75	>184	79.51
CCc1cc([C@H]2O[C@@H](n3cnc4c(NC(CC)CC)nc(NCCNc5ccccn5)nc43)[C@H](O)[C@@H]2O)on1.O=CO.O=CO [Example 53, (2S,3S,4R,5R)-2-(3-Ethyl-isoxazol-5-yl)-5-{6-(1-ethyl-propylamino)-2-[2-(pyridin-2-ylamino)-ethylamino]-purin-9-yl}-tetrahydro-furan-3,4-diol diformate]	2.11	>229	128.9
CCc1cc(C2OC(n3cnc4c(NCC(c5ccccc5)c5ccccc5)nc(NC(CO)Cc5ccccc5)nc43)C(O)C2O)on1 [Example 17, (2R,3R,4S,5S)-2-[6-(2,2-Diphenyl-ethylamino)-2-(1S-hydroxymethyl-2-phenyl-ethylamino)-purin-9-yl]-5-(3-ethyl-isoxazol-5-yl)-tetrahydro-furan-3,4-diol formate]	0.34	>298	1172
CCc1cc([C@H]2O[C@@H](n3cnc4c(NCC(c5ccccc5)c5ccccc5)nc(NCCO)nc43)[C@H](O)[C@@H]2O)on1.O=CO [Example 4, (2R,3R,4S,5S)-2-[6-(2,2-Diphenyl-ethylamino)-2-(2-hydroxy-ethylamino)-purin-9-yl]-5-(3-ethyl-isoxazol-5-yl)-tetrahydro-furan-3,4-diol formate]	0.92	>267	109.3
CCc1cc(C2OC(n3cnc4c(NC(CO)Cc5ccccc5)nc(NCCN5CCOCC5)nc43)C(O)C2O)on1 [Example 51, (2S,3S,4R,5R)-2-(3-Ethyl-isoxazol-5-yl)-5-[6-(1S-hydroxymethyl-2-phenyl-ethylamino)-2-(2-morpholin-4-yl-ethylamino)-purin-9-yl]-tetrahydro-furan-3,4-diol diformate]	4.86	>340	22.53
CCc1cc(C2OC(n3cnc4c(NC(CC)CC)nc(NCCNC(=N)N)nc43)C(O)C2O)on1 (stereo not drawn) [Example 40, N-{2-[9-[5S-(3-Ethyl-isoxazol-5-yl)-3R,4S-dihydroxy-tetrahydro-furan-2R-yl]6-(1-ethyl-propylamino)-9H-purin-2-ylamino]-ethyl}-guanidine diformate]	3.38	>88	70.53
CCc1cc([C@H]2O[C@@H](n3cnc4c(NC(CC)CC)nc(NCCc5cn(C)cn5)nc43)[C@H](O)[C@@H]2O)on1.O=CO.O=CO [Example 5, (2S,3S,4R,5R)-2-(3-Ethyl-isoxazol-5-yl)-5-{6-(1-ethyl-propylamino)-2-[2-(1-methyl-1H-imidazol-4-yl)-ethylamino]-purin-9-yl}-tetrahydro-furan-3,4-diol diformate]	0.11	>237	30.1
